Measured values from US4567182A, “Compounds endowed with immunomodulating activity” (Co Pharma Corporation s.r.l., priority 1981, dated 1986).

Assays:
T-lymphocytes = experiment: Ability of T-lymphocytes to form "active" E-rosettes; format: cell-based
Procedure: The effect of the compounds object of this invention on the ability of T-lymphocytes to form "active" E-rosettes, has also been studied (Pasino e coll., Boll. Ist. Sieroter, Mil. 60, 4, 297-301, 1981).
Lymphocytes were incubated at 4° for 24 hours, then isolated and incubated for 90 min. in the presence or absence of different concentrations of the drug prior to the assay. Data were expressed as % of cells forming rosettes: as an example, compound (Ib-2) gave an enhancement of the percentage from 35 to 50%, at concentrations from 1 and 3 μg/ml; higher concentrations, the percentage of active E-rosettes decreased.

[1] = tested on: PHA stimulated lymphocytes; experiment: Stimulation by phytohemagglutinin (PHA) of lymphocytes from Hodgkin's disease patients; format: cell-based, human (patients affected by Hodgkin's disease); conditions: for effect on the PHA response: Ib-4 already at 0.1 γ/ml, methisoprinol at 200-400 γ/ml
From the text: In FIG. 1, the effects of compound (Ib-4) are shown in comparison with methisoprinol on the stimulation by phytohemagglutinin (PHA) of lymphocytes extracted by patients affected by Hodgkin's disease and off-therapy since, at least, 17 months. The PHA response of lymphocytes of these patients are below normal range.
The in vitro effect of (Ib, 4) and methisoprinol on the stimulation by PHA of lymphocytes was studied by cultivating PHA stimulated lymphocytes in the presence of these compounds at different doses: methisoprinol at 100, 200, 400 γ/ml; (Ib-4) at 0.1, 0.5, 1 and 5 γ/ml.

[2] = tested on: polymorphonuclear leucocytes; experiment: Polymorphonuclear (PMN) membrane-stimulated oxidative metabolic activity (superoxide production); format: cell-based
Procedure: In FIG. 2 the results of the study of the effect of (Ib-4) on the polymorphonuclear (PMN) […] membrane-stimulated oxidative metabolic activity are reported: polymorphonuclear leucocytes (2.5×10^4 /ml) in phosphate buffer solution (PBS) were incubated for 15' at 37° C. with ferricytochrome C (1.5 mg/ml) in the presence or absence of superoxide dismutase (SOD) (0.125 mg/ml) after the addition of 50 μl of stimulating agent.
The amount of reduced cytochrome C in che cell free supernatant was determined spectrophotometrically at 550 nm and the O2^- release calculated according to a standard formula. Appropriate control tubes contained fixed doses of (Ib-4) (from 0.01 γ/ml to 200 γ/ml).

[3] = tested on: spleen cells from BALB/C mice; experiment: Incorporation of labelled thymidine stimulated by PHA or LPS in spleen cells; format: cell-based, mouse (BALB/C); parameters: Thymid. inc.: unit not given here
Procedure: Ib-4 is also active, at doses ranging from 0.001 to 40 μg/ml, in inhibiting the incorporation of labelled thymidine stimulated by phytohemagglutinin (PHA) or lypopolysaccharides (LPS), in spleen cells from BALB/C mice 8-10 weeks old. The inhibition of the proliferation in vitro is dose-dependent and it is probably due to activation of suppressor cell mechanism. In the following table the results of thymidine incorporation in a 10^6 cells/ml culture have been listed.

[4] = tested on: autologous lymphocytes stimulated by concanavalin A; experiment: Suppressor cell effect: proliferative response of autologous lymphocytes stimulated by concanavalin A; format: cell-based, human (healthy volunteers); conditions: 0.1 to 1.5 μg/ml; 48 h drug incubation; concanavalin A 3 days
Procedure: (§1) The effect of (Ib-4) on the suppressor cell has also been studied using lymphocytes from healthy volunteers, incubated for 48 hours with different drug concentrations then washed and incubated either with autologous lymphocytes stimulated by concanavalin A for 3 days or with allogeneic mitomycin-treated lymphocytes for 5 days (Mixed Lymphocytes Reaction): (Ib-4), at concentrations between 0.1 and 1.5 μg/ml, gave an inhibition of the proliferative response of about 60% in comparison with controls.

[5] = tested on: allogeneic mitomycin-treated lymphocytes; experiment: Suppressor cell effect: Mixed Lymphocytes Reaction; format: cell-based, human (healthy volunteers); conditions: 0.1 to 1.5 μg/ml; 48 h drug incubation; mixed lymphocytes 5 days
Procedure: as §1

## CC(NC(=O)CCC(=O)OCCn1cnc2c(O)ncnc21)C(=O)O (racemic) [Ib-2, 6-Hydroxy-9-{2-[2-(1-carboxy)ethylaminocarbonylethyl]carbonyloxyethyl}purine]
T-lymphocytes; 1 and 3 μg/ml, enhanced from 35%, 90 min incubation
  % of cells forming active E-rosettes: 50%
T-lymphocytes; concentrations higher than 1 and 3 μg/ml
  percentage of active E-rosettes at higher concentrations: decreased

## N=C(NCCC[C@H](N)C(=O)O)NC(=O)CCC(=O)OCCn1cnc2c(O)ncnc21 [Ib-4, N-{3-[2-(6-hydroxypurinyl-9)-ethoxycarbonyl]propionyl}-N'-(4-carboxy-4-amino-butyl)guanidine]
[1]; Homo sapiens, Lymphocyte, in vitro, lymphocytes of Hodgkin's disease patients off-therapy, read-out: dose producing enhancement of the PHA response
  minimal effective concentration: ≤ 0.1 µg/mL
[1]
  effect on the PHA response: marked enhancement of the PHA response
[2]; 1 γ/ml, T-test for paired data
  enhancement in the superoxide production: statistically significant enhancement in the superoxide production
[2]; dosages higher than 1 γ/ml (up to 200 γ/ml)
  O2- production at higher dosages: gradual decrease of the O2^- production
[3]; LPS (printed LPSD), drug 0.1 μg/ml, control without drug 15631+/-215
  Thymid. inc.: 729+/-51
[3]; LPS, drug 0.001 μg/ml, control without drug 15631+/-215
  Thymid. inc.: 4600+/-85
[3]; LPS, drug 0.01 μg/ml, control without drug 15631+/-215
  Thymid. inc.: 435+/-113
[3]; LPS, drug 1 μg/ml, control without drug 15631+/-215
  Thymid. inc.: 665+/-19
[3]; LPS, drug 2.5 μg/ml, control without drug 15631+/-215
  Thymid. inc.: 627+/-40
[3]; LPS, drug 5 μg/ml, control without drug 15631+/-215
  Thymid. inc.: 445+/-44
[3]; LPS, drug 10 μg/ml, control without drug 15631+/-215
  Thymid. inc.: 385+/-38
[3]; LPS, drug 15 μg/ml, control without drug 15631+/-215
  Thymid. inc.: 405+/-51
[3]; LPS, drug 20 μg/ml, control without drug 15631+/-215
  Thymid. inc.: 385+/-38
[3]; LPS, drug 40 μg/ml, 10^6 cells/ml, control without drug 15631+/-215
  Thymid. inc.: 329+/-23
[3]; PHA or LPS stimulated, 0.001 to 40 μg/ml
  inhibition of the proliferation in vitro: dose-dependent
[3]; PHA, drug 0.001 μg/ml, control without drug 3089+/-177
  Thymid. inc.: 840+/-87
[3]; PHA, drug 0.01 μg/ml, control without drug 3089+/-177
  Thymid. inc.: 850+/-61
[3]; PHA, drug 0.1 μg/ml, control without drug 3089+/-177
  Thymid. inc.: 721+/-77
[3]; PHA, drug 1 μg/ml, control without drug 3089+/-177
  Thymid. inc.: 316+/-78
[3]; PHA, drug 2.5 μg/ml, control without drug 3089+/-177
  Thymid. inc.: 250+/-34
[3]; PHA, drug 5 μg/ml, control without drug 3089+/-177
  Thymid. inc.: 193+/-50
[3]; PHA, drug 10 μg/ml, control without drug 3089+/-177
  Thymid. inc.: 146+/-19
[3]; PHA, drug 15 μg/ml, control without drug 3089+/-177
  Thymid. inc.: 141+/-40
[3]; PHA, drug 20 μg/ml, control without drug 3089+/-177
  Thymid. inc.: 241+/-16
[3]; PHA, drug 40 μg/ml, 10^6 cells/ml, control without drug 3089+/-177
  Thymid. inc.: 159+/-13
[4]
  inhibition of the proliferative response in comparison with controls: about 60%
[5]
  inhibition of the proliferative response in comparison with controls: about 60%

## methisoprinol [reference compound]
[1]
  effect on the PHA response: a stimulating effect which is less than that produced by (Ib-4)
[1]; in vitro, lymphocytes of Hodgkin's disease patients off-therapy
  dose producing enhancement of the PHA response: 200 to 400 µg/mL
